The record followed here is ChEMBL document CHEMBL4017516, “Sulfonium as a Surrogate for Ammonium: A New α7 Nicotinic Acetylcholine Receptor Partial Agonist with Desensitizing Activity” (J Med Chem, 2017).

For data set [1], the target named is T1, Neuronal acetylcholine receptor subunit alpha-7 (Homo sapiens, UniProt P36544). In words: Partial agonist activity at human alpha7 nAChR expressed in Xenopus laevis oocytes assessed as induction of maximum current response at 10 to 300 uM administered for 12 secs followed by washout period for 181 secs by voltage clamp technique. In kind it is cell-based.
T1 sequence (P36544 whole entry): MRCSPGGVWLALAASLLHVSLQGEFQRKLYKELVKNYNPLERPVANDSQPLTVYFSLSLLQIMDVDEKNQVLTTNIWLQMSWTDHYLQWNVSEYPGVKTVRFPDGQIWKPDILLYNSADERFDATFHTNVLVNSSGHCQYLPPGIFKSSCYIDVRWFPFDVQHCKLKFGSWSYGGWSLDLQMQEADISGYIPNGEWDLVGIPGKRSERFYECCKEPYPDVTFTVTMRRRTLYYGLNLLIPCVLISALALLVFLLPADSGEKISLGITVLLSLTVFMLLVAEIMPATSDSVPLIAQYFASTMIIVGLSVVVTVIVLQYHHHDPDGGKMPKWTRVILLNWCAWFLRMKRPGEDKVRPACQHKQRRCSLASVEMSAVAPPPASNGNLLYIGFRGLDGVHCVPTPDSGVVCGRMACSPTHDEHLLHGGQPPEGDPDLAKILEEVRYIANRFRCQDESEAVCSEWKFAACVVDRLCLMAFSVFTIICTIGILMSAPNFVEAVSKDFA

Data set [2] deals with T1, Neuronal acetylcholine receptor subunit alpha-7. The data set is described as follows: Partial agonist activity at human alpha7 nAChR expressed in Xenopus laevis oocytes assessed as induction of maximum current response at 100 uM administered for 12 secs followed by washout period for 181 secs by voltage clamp technique relative to acetylcholine. In kind it is cell-based.

The target is the same in data set [3]. The data set is described as follows: Silent agonist activity at human alpha7 nAChR expressed in Xenopus laevis oocytes assessed as induction of PNU-120596-stimulated peak current response at 30 uM administered for 12 secs followed by washout period for 181 secs by voltage clamp technique relative to acetylcholine. It counts as cell-based.
For data set [4] the target is unchanged. In words: Antagonist activity at human alpha7 nAChR expressed in Xenopus laevis oocytes assessed as inhibition of acetylcholine-induced current response at 300 uM administered for 12 secs followed by washout period for 181 secs by voltage clamp technique relative to acetylcholine. In kind it is cell-based.
For data set [5] the target is unchanged. In words: Silent agonist activity at human alpha7 nAChR expressed in Xenopus laevis oocytes assessed as induction of PNU-120596-stimulated peak current response at 10 uM administered for 12 secs followed by washout period for 181 secs by voltage clamp technique relative to acetylcholine. In kind it is cell-based.
Data set [6] shares this target. In words: Silent agonist activity at human alpha7 nAChR expressed in Xenopus laevis oocytes assessed as induction of PNU-120596-stimulated peak current response at 100 uM administered for 12 secs followed by washout period for 181 secs by voltage clamp technique relative to acetylcholine. It counts as cell-based.
The target of data set [7] is T2, Neuronal acetylcholine receptor; alpha4/beta2 (Homo sapiens, UniProt P17787+P43681). The data set is described as follows: Agonist activity at human alpha4beta2 nAChR expressed in Xenopus laevis oocytes assessed as induction of current response administered for 6 secs followed by washout period for 241 secs by voltage clamp technique. In kind it is cell-based.
T2 sequence (P17787 whole entry): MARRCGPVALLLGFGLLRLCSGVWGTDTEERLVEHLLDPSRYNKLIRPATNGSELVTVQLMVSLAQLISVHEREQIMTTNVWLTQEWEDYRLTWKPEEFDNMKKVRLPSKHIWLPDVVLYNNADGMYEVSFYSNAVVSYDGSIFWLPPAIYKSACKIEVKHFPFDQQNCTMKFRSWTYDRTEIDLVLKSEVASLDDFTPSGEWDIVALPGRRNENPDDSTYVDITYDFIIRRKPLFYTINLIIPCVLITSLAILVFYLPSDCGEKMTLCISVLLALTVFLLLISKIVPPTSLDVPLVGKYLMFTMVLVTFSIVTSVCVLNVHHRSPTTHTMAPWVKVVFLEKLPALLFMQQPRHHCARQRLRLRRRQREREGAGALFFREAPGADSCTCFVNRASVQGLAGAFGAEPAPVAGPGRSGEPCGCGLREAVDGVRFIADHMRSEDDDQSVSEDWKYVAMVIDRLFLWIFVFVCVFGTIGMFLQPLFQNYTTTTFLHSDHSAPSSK
T2 sequence (P43681 whole entry): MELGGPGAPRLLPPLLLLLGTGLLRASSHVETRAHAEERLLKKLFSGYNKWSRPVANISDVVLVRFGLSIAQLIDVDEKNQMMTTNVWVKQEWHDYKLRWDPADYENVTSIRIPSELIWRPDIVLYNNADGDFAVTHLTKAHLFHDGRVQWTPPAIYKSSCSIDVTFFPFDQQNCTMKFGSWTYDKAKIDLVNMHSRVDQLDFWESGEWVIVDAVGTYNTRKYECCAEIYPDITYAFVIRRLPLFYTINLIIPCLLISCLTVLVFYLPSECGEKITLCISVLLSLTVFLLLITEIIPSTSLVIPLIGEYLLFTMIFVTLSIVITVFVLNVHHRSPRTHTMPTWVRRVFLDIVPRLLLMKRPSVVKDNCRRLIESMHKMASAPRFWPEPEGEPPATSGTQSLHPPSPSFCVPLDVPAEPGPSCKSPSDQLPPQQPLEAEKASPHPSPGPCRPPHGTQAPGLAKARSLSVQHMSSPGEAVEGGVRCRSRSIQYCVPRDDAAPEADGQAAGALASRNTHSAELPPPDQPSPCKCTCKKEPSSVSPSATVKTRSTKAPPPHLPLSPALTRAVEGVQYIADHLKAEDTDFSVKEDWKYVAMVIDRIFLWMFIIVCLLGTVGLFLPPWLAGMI
Data set [8] concerns the target T3, Neuronal acetylcholine receptor; alpha3/beta2 (Homo sapiens) (UniProt P17787+P32297). The data set is described as follows: Agonist activity at human ganglionic alpha3beta2 nAChR expressed in Xenopus laevis oocytes assessed as induction of current response at 30 uM administered for 6 secs followed by washout period for 241 secs by in presence of acetylcholine voltage clamp technique. It counts as cell-based.

The target of data set [9] is T3, Neuronal acetylcholine receptor; alpha3/beta2 (Homo sapiens). The data set is described as follows: Antagonist activity at human […] alpha3beta2 nAChR expressed in Xenopus laevis oocytes assessed as inhibition of acetylcholine-induced current response at 30 uM administered for 6 secs followed by washout period for 241 secs by in presence of acetylcholine voltage clamp technique. In kind it is cell-based.

The target is the same in data set [10]. In words: Antagonist activity at human ganglionic alpha3beta2 nAChR expressed in Xenopus laevis oocytes assessed as inhibition of acetylcholine-induced current response at 100 uM administered for 6 secs followed by washout period for 241 secs by in presence of acetylcholine voltage clamp technique. It counts as cell-based.
Data set [11] in a line: Hydrolytic stability of compound in water at 8.4 mM up to 60 days by [1H]-NMR spectroscopy. In kind it is physicochemical. The settings on record: buffer, 1440 h, 8400 µM.
The target of data set [12] is T2, Neuronal acetylcholine receptor; alpha4/beta2. The data set is described as follows: Antagonist activity at human alpha4beta2 nAChR expressed in Xenopus laevis oocytes assessed as inhibition of acetylcholine-induced current response administered for 6 secs followed by washout period for 241 secs by voltage clamp technique. It counts as cell-based.
For data set [13], the target named is T3, Neuronal acetylcholine receptor; alpha3/beta2 (Homo sapiens). In words: Agonist activity at human […] alpha3beta2 nAChR expressed in Xenopus laevis oocytes assessed as induction of current response at 30 uM administered for 6 secs followed by washout period for 241 secs by in presence of acetylcholine voltage clamp technique. In kind it is cell-based.

For data set [14], the target named is T1, Neuronal acetylcholine receptor subunit alpha-7. In words: Partial agonist activity at human alpha7 nAChR expressed in Xenopus laevis oocytes assessed as induction of maximum current response administered for 12 secs followed by washout period for 181 secs by voltage clamp technique. In kind it is cell-based.
A short description of data set [15]: Hydrolytic stability of compound in Ringers-D2O buffer at 8.4 mM at pH 7.2 up to 60 days by [1H]-NMR spectroscopy. It counts as physicochemical. The settings on record: pH 7.2, 1440 h, 8400 µM.
Data set [16] addresses T1, Neuronal acetylcholine receptor subunit alpha-7. In words: Antagonist activity at human alpha7 nAChR expressed in Xenopus laevis oocytes assessed as inhibition of acetylcholine-induced current response administered for 12 secs followed by washout period for 181 secs by voltage clamp technique. It counts as cell-based.
Data set [17] has the same target. The data set is described as follows: Induction of human alpha7 nAChR desensitization expressed in Xenopus laevis oocytes at 100 uM pretreated for 30 secs followed by PNU-120596 administered for 10 secs by voltage clamp technique relative to acetylcholine. It counts as cell-based.

A word on the inhibition: it is the percentage by which the read-out fell short of the control. One may read the pIC50 as the negative decadic logarithm of the IC50, by convention in mol/L. Broadly, the pEC50 is the EC50 on a negative log10 scale, so that one unit is a factor of ten.

The structures appear in SMILES notation. pEC50, pIC50: −log10 of the molar value. Calls of active or inactive are those of the source. The rule behind the calls is not given here.

As for `CCN1CCN(c2ccccc2)CC1`, the result in data set [1], in [3], in [5] and in data set [6] was inactive. For the same compound, the fold change (FC) in [2] amounted to 0. Moreover, the inhibition in data set [4] was less than 20%.

For `CC[S+]1CCN(c2ccccc2)CC1.O=S(=O)([O-])C(F)(F)F`, the outcome in [7], in data set [8] and in data set [13] was inactive. Moreover, the fold change (FC) in [2] stood at 0.07; in data set [3], 3; in data set [5] it was 5; in [6] it was 25. Moreover, the inhibition entry in data set [9] and in data set [10] was “Active” in each case. In addition, the Stability result in data set [11] and in data set [15] was “Stable” each time. The pIC50 was 4.29 in data set [12] and 4.14 in [16]. Also, the negative logarithm of the EC50 (pEC50) in data set [14] is 4.40. The result in data set [17] was Active.

On to `CC[N+]1(CC)CCN(c2ccccc2)CC1`, for which the fold change (FC) in data set [2] was found to be 0.47. The result in data set [3], in [5] and in [6] was Active. In addition, the pIC50 in data set [16] was 4.26.

Regarding `CC[N+]1(c2ccccc2)CCSCC1`, the result in data set [3], in data set [14], in data set [5] and in data set [6] was inactive.
